Test results as given in the supplement of paper PMC10307832.

Experiments:
Test in all cases: relative viability (nuclei count vs DMSO), 5 days (fraction); higher = more cells survive
Quizartinib + Tozasertib = compound: CC(C)(C)c1cc(NC(=O)Nc2ccc(-c3cn4c(n3)sc3cc(OCCN5CCOCC5)ccc34)cc2)no1 [Quizartinib] + Cc1cc(Nc2cc(N3CCN(C)CC3)nc(Sc3ccc(NC(=O)C4CC4)cc3)n2)n[nH]1 [Tozasertib] (partner 0.1 µM)
How it was run: (§1)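 Lung cancer cell lines in 1536-well plates were dosed by pin tool the day after seeding, either with one drug alone or with a fixed anchor-drug dose plus five library-drug doses (not always all listed) in √10 steps. After 5 days, cells were fixed and their nuclei stained in one step (final 0.05% Triton X-100, 1% formaldehyde, 1 ug/ml Hoechst), then counted on 4× images. Relative viability is the nuclei count in treated wells divided by that in vehicle wells. Values are medians of duplicate plates.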

YM155 + Navitoclax = compound: COCC[n+]1c2c(n(Cc3cnccn3)c1C)C(=O)c1ccccc1C2=O [YM155] + CC1(C)CCC(c2ccc(Cl)cc2)=C(CN2CCN(c3ccc(C(=O)NS(=O)(=O)c4ccc(N[C@H](CCN5CCOCC5)CSc5ccccc5)c(S(=O)(=O)C(F)(F)F)c4)cc3)CC2)C1 [Navitoclax] (partner 0.5 µM)
How it was run: as §1

YM155 + Crizotinib = compound: COCC[n+]1c2c(n(Cc3cnccn3)c1C)C(=O)c1ccccc1C2=O [YM155] + C[C@@H](Oc1cc(-c2cnn(C3CCNCC3)c2)cnc1N)c1c(Cl)ccc(F)c1Cl [Crizotinib] (partner 1 µM)
How it was run: as §1

YM155 + Pemetrexed = compound: COCC[n+]1c2c(n(Cc3cnccn3)c1C)C(=O)c1ccccc1C2=O [YM155] + Nc1nc2[nH]cc(CCc3ccc(C(=O)N[C@@H](CCC(=O)O)C(=O)O)cc3)c2c(=O)[nH]1 [Pemetrexed] (partner 0.2 µM)
How it was run: as §1

| Cell Line | relative viability (Quizartinib + Tozasertib; first compound 0.003162 µM) | relative viability (Quizartinib + Tozasertib; first compound 0.01 µM) | relative viability (Quizartinib + Tozasertib; first compound 0.03162 µM) | relative viability (Quizartinib + Tozasertib; first compound 0.1 µM) | relative viability (YM155 + Navitoclax; first compound 0.002 µM) | relative viability (YM155 + Navitoclax; first compound 0.006325 µM) | relative viability (YM155 + Navitoclax; first compound 0.02 µM) | relative viability (YM155 + Navitoclax; first compound 0.06325 µM) | relative viability (YM155 + Crizotinib; first compound 0.002 µM) | relative viability (YM155 + Crizotinib; first compound 0.006325 µM) | relative viability (YM155 + Crizotinib; first compound 0.02 µM) | relative viability (YM155 + Crizotinib; first compound 0.06325 µM) | relative viability (YM155 + Pemetrexed; first compound 0.006325 µM) | relative viability (YM155 + Pemetrexed; first compound 0.02 µM) | relative viability (YM155 + Pemetrexed; first compound 0.06325 µM) | relative viability (Quizartinib + Tozasertib; first compound 0.001 µM) | relative viability (YM155 + Pemetrexed; first compound 0.002 µM) |
| --- | --- | --- | --- | --- | --- | --- | --- | --- | --- | --- | --- | --- | --- | --- | --- | --- | --- |
| NCI-H23 | 0.343 | 0.405 | 0.249 | 0.231 | 0.727 | 0.879 | 0.967 | 0.269 | 0.527 | 0.607 | 0.47 | 0.234 | 0.655 | 0.646 | 0.549 |  |  |
| NCI-H322M | 0.468 | 0.505 | 0.511 | 0.558 | 1.24 | 1.23 | 1.28 | 1.47 | 0.822 | 0.906 | 0.949 | 0.578 | 0.613 | 0.576 | 0.622 | 0.393 | 0.504 |
| NCI-H441 | 0.599 | 0.586 |  | 0.489 | 0.56 | 0.633 | 0.554 | 0.403 | 0.676 | 0.623 | 0.694 | 0.509 | 0.267 | 0.293 | 0.198 | 0.66 | 0.249 |
| NCI-H460 | 0.401 | 0.394 | 0.142 | 0.0635 | 1.17 | 1.23 | 1.27 | 0.903 | 1.01 | 0.803 | 0.936 | 0.84 | 0.0667 | 0.0671 | 0.0598 | 0.4 | 0.072 |
| NCI-H520 | 0.448 | 0.444 | 0.393 | 0.385 | 1.15 | 0.991 | 1.07 | 1.03 | 0.755 | 0.725 | 0.835 | 0.66 | 0.74 | 0.685 | 0.694 | 0.347 | 0.534 |
| NCI-H596 | 0.838 | 0.964 | 0.803 | 0.64 |  | 0.972 | 1.09 | 1.03 |  | 0.965 | 0.997 | 0.974 | 0.485 | 0.532 | 0.499 | 0.642 | 0.429 |
| NCI-H647 | 0.258 | 0.284 | 0.329 | 0.301 | 0.947 | 1.17 | 0.855 | 0.442 | 1.08 | 1.31 | 1.12 | 0.755 | 0.171 | 0.173 | 0.164 | 0.267 | 0.189 |
| NCI-H838 | 0.22 | 0.3 | 0.276 | 0.22 | 1.04 | 1.21 | 1.22 | 0.791 | 0.825 | 0.909 | 0.911 | 0.297 | 0.232 | 0.225 | 0.216 | 0.249 | 0.276 |
| NCI-H1355 | 0.542 | 0.51 | 0.442 | 0.433 | 0.947 | 1.08 | 1.08 | 1.04 | 0.988 | 1.11 | 1.03 | 1.01 | 1.07 | 1.04 | 0.997 | 0.495 | 0.979 |
| NCI-H1437 | 0.399 | 0.422 | 0.367 | 0.329 | 1.07 | 1.08 | 1.09 | 1.01 | 0.878 | 0.9 | 0.902 | 0.681 | 0.305 | 0.33 | 0.234 | 0.372 | 0.297 |
| NCI-H1650 | 0.366 | 0.369 |  | 0.238 | 1.23 | 1.08 | 0.835 | 0.23 | 0.924 | 0.974 | 0.717 | 0.286 | 0.348 | 0.321 | 0.249 | 0.42 | 0.35 |
| NCI-H1651 | 0.679 | 0.645 | 0.351 | 0.5 | 1.22 | 0.995 | 1.08 | 0.606 | 0.956 | 0.806 | 0.876 | 0.894 | 0.599 | 0.6 | 0.615 | 0.604 | 0.598 |
| NCI-H1666 | 0.594 | 0.612 | 0.462 | 0.557 | 0.991 |  | 0.996 | 0.861 | 1.05 |  | 1.01 | 0.879 | 0.881 | 0.854 | 0.868 | 0.56 | 0.837 |
| NCI-H1734 | 0.288 | 0.267 | 0.274 | 0.271 | 0.867 | 0.88 | 0.835 | 0.876 | 0.646 | 0.662 | 0.766 | 0.675 | 0.404 | 0.399 | 0.452 | 0.237 | 0.375 |
| NCI-H1755 | 0.536 | 0.569 | 0.626 | 0.48 | 0.996 | 0.981 | 0.949 | 1.06 | 0.882 | 0.833 | 0.973 | 0.859 | 0.42 | 0.359 | 0.434 | 0.583 | 0.647 |
| NCI-H1915 | 0.427 | 0.42 | 0.401 | 0.389 | 0.804 | 0.79 | 0.792 | 0.822 | 0.898 | 0.916 | 0.922 | 0.849 | 0.494 | 0.439 | 0.458 | 0.419 | 0.481 |
| NCI-H1944 | 0.264 | 0.267 | 0.263 | 0.278 | 1.05 | 0.983 | 1.05 | 1.17 | 1.07 | 0.916 | 1.2 | 1.27 | 0.559 | 0.587 | 0.641 | 0.291 | 0.74 |
| NCI-H1975 | 0.809 | 0.488 | 0.372 | 0.16 | 1.09 | 0.97 | 1.08 | 0.626 | 0.941 | 1.03 | 0.995 | 0.633 | 0.258 | 0.302 | 0.167 | 0.71 | 0.26 |
| NCI-H1993 | 0.645 | 0.594 | 0.622 | 0.582 | 0.968 | 0.951 | 0.847 | 0.795 | 1.01 | 0.825 | 0.703 | 0.552 | 0.542 | 0.567 | 0.444 | 0.589 | 0.566 |
